Measurements: the NIST ThermoML archive (doi:10.1021/acs.jced.5b00317)
Numbers after ± are expanded uncertainties.

Settings: 101 kPa, Liquid, Sing-around technique in a fixed-path interferometer

- speed of sound (313.15 K): 1529.2 ± 0.77 m/s
- speed of sound (318.15 K): 1536.8 ± 0.78 m/s
Structure (SMILES): O [water]
